From patent US12111318B2, “Method for treating cancer based on expression levels of translationally controlled tumor protein (TCTP)” (KOREA UNIVERSITY RESEARCH AND BUSINESS FOUNDATION, priority 2020, dated 2024)
Read-outs that look alike come from different tables or passages of the source.

What was measured:
[1] = tested on: CT26 TCTP cells; assay: Cell viability assay (trypan blue exclusion), CT26 TCTP cells; format: cell-based
Procedure: (§1) CT26 tumor cells were treated with indicated concentrations of cisplatin, dihydroartemisinin, rapamycin, sertraline, and thioridazine for 24 hours. Cell viability was measured by the trypan blue exclusion assay, and the concentrations causing a 50% decrease in cell viability (IC50 values) were determined.

[2] = tested on: CT26 P3 tumor; assay: ICB-refractory CT26 P3 tumor-bearing mice, anti-PD-L1 antibody alone or combined with DHA; format: in vivo, mouse; conditions: both the anti-PD-L1 blockade agent and DHA; all mice in the other groups died
Procedure: Next, the present inventors expanded the preclinical therapeutic value of DHA in ICB therapy. To do this, ICB-refractory CT26 P3 tumor-bearing mice were administered anti-PD-L1 antibody alone or combined with DHA (FIG. 7G).

[3] = tested on: CT26 TCTP tumor cells
Procedure: The tumor cells were harvested by trypsinization and washed once with DMEN (Thermo Fisher, USA) containing 0.1% fetal bovine (FBS), resuspended, and labeled in 0.1% DMEN with 10 μM CFSE for 10 minutes in a 37° C. incubator with 5% CO2. Then, the CFSE-labeled (MCF-7, HCT116, CaSki, MDA-MB-231) tumor cells were resuspended in 10 μM MART-1 peptide containing 1 ml of DMEM. In the case of A375 and 526Mel, the peptide-pulsing process was not needed. After peptide-pulsing for 1 hour, the cells were incubated for 4 hours with MART-1- or the NY-ESO1-specific CD8+ T cell lines at an E/T ratio of 1:1. […] All analysis was performed using a Becton Dickinson FACSverse (BD Bioscience, USA).
To further investigate the effect of each drug on sensitizing TCTP^high tumor cells to CTL-mediated killing, CT26 TCTP tumor cells were incubated with CTLs at various tumor cell-T cell ratios after treatment with a sublethal dose of each drug.
To quantify the synergistic effects of treatment of each drug with CTLs, a combination score was calculated based on changes in the percentage of apoptosis in drug-treated tumor cells with or without CTLs (see the following formula 1). […] Formula 1

[4] = tested on: CT26 No cells; assay: Cell viability assay (trypan blue exclusion), CT26 No cells; format: cell-based; conditions: Mus musculus, 24 hours, read-out: IC50 (concentration causing a 50% decrease in cell viability)
Procedure: as §1

`C[C@H]1[C@@H](O)O[C@@H]2O[C@@]3(C)CC[C@H]4[C@H](C)CC[C@@H]1[C@@]24OO3` [DHA, dihydroartemisinin] was tested, and the “Difference of IC50 between CT26 No and CT26 TCTP cells” value ([1]; CT26 No vs CT26 TCTP) was “about 20 fold”, the IC50 ([1]; Mus musculus, CT26 TCTP cells, 24 hours, read-out: IC50 (concentration causing a 50% decrease in cell viability)) was 22.7 µM and the Mice that survived [2] was 90%. The CTL-mediated cytotoxicity ([3]; sublethal dose of each drug, then CTLs at various tumor cell-T cell ratios, compared to PBS or cisplatin) was “augmented CTL-mediated cytotoxicity in a synergistic fashion” and the IC50 [4] was 408 µM.

`CO[C@H]1C[C@@H]2CC[C@@H](C)[C@@](O)(O2)C(=O)C(=O)N2CCCC[C@H]2C(=O)O[C@H]([C@H](C)C[C@@H]2CC[C@@H](O)[C@H](OC)C2)CC(=O)[C@H](C)/C=C(\C)[C@@H](O)[C@@H](OC)C(=O)[C@H](C)C[C@H](C)/C=C/C=C/C=C/1C` [rapamycin] was tested, and the CTL-mediated cytotoxicity [3] was “augmented CTL-mediated cytotoxicity in a synergistic fashion”.

With `CN[C@H]1CC[C@@H](c2ccc(Cl)c(Cl)c2)c2ccccc21` [sertraline] the CTL-mediated cytotoxicity [3] was “augmented CTL-mediated cytotoxicity in a synergistic fashion”.

In the case of `N.N.[Cl][Pt][Cl]` [cisplatin], the “Susceptibility of CT26 TCTP cells to the drug” value ([1]; CT26 TCTP vs CT26 No cells, 24 hours) is reported as “refractory”.

With `CSc1ccc2c(c1)N(CCC1CCCCN1C)c1ccccc1S2` (stereo not drawn) [thioridazine] the CTL-mediated cytotoxicity [3] was “augmented CTL-mediated cytotoxicity in a synergistic fashion”.
